Data reported in PMC6896172, “Successful Targeting of the Warburg Effect in Prostate Cancer by Glucose-Conjugated 1,4-Naphthoquinones” (Cancers, 2019).

Experiments:
PC-3 cells = assay: MTT cytotoxicity assay in PC-3 cells; format: cell-based, human; conditions: for IC50: Homo sapiens, PC-3, 48 h, 48 h of treatment; for SI [IC50(PNT2) / IC50(PC-3)]: ratio of IC50 in PNT2 cells to IC50 in PC-3 cells, 48 h
Source text: (§1) For general experiments human prostate cancer cell lines PC-3 and DU145 (docetaxel-resistant, androgen-independent, AR-FL(−), AR-V7(−)), 22Rv1 and VCaP (docetaxel-sensitive, androgen-independent, AR-FL(+), AR-V7(+), and LNCaP (docetaxel sensitive, androgen-dependent, AR-FL(+), AR-V7(−) were used. PC-3, 22Rv1, LNCaP cells as well as the human prostate non-cancer cells PNT2 and RWPE-1 were purchased from ATCC (Manassas, VA, USA). VCaP were purchased from ECACC (Salisbury, UK). The human fibroblast cell line MRC-9, the human embryonic kidney cell line HEK 293T, as well as the human umbilical vascular endothelial cell line HUVEC were kindly donated by Prof. Dr. Dr. med. Sonja Loges (University Medical Center Hamburg-Eppendorf, Hamburg, Germany). Cells were cultured according to the manufacturers’ instructions and were recently authenticated by a commercial service (Multiplexion, Heidelberg, Germany). Culture conditions are described in the Supplementary Information.
(§2) MTT (3-(4,5-dimethylthiazol-2-yl)-2,5-diphenyltetrazolium bromide) cytotoxicity assay was used for the evaluation of cytotoxicity of the compounds or their combinations. Experiments were performed as previously described. In brief, 6000 cells/well were seeded in 96-well plate, incubated overnight, and treated with the drugs in 100 µL/well of 10% FBS/RPMI media containing 2 g/L of D-(+)-glucose for 48 h, unless otherwise stated. For 2 h treatment the cells were treated with the drugs for 2 h in the culture media, then the media was exchanged to fresh drug-free media (100 µL/well) containing MTT reagent and the further steps were performed as previously described.
(§3) Table S4. Cytotoxic activity of the synthesized compounds. Cytotoxicity was determined in human prostate cancer PC-3 cells versus human prostate non-cancer
(§4) PNT2 cells after 48 h of treatment, as well as its ratio. IC50 was evaluated using MTT assay. SI–selectivity index. #–the IC50s in both cell lines were >100 µM.
(§5) Anisomycin was used as a reference substance.
(§6) No Formula IC50(PC-3) IC50(PNT2) SI […]

PNT2 cells = assay: MTT cytotoxicity assay in PNT2 cells; format: cell-based, human; conditions: Homo sapiens, PNT2, 48 h, 48 h of treatment
Source text: as §1, §2, §3, §4, §5, §6

SMILES | IC50 (PC-3 cells) [µM] | IC50 (PNT2 cells) [µM] | SI [IC50(PNT2) / IC50(PC-3)] (PC-3 cells)
O=C1C=C(OCC2OC(O)C(O)C(O)C2O)C(=O)c2ccccc21 (centres unmarked) [Compound 4] | > 100 | > 100 | –
CCc1c(O)c2c(c(O)c1Cl)C(=O)C(OCC(O)C1OC3OC(C)(C)OC3C1O)=CC2=O (centres unmarked) [Compound 23] | 7.35 | 5.21 | 0.71
COC1=CC(=O)c2ccccc2C1=O [Compound 1] | 9.33 | 14.5 | 1.55
CC1(C)OC2OC(C(O)COC3=CC(=O)c4c(O)c(Cl)c(Cl)c(O)c4C3=O)C(O)C2O1 (centres unmarked) [Compound 27] | 3.47 | 4.47 | 1.29
CCc1c(O)c2c(c(O)c1OC)C(=O)C(OCC1OC(C)(C)OC3C1OC1OC(C)(C)OC13)=CC2=O (centres unmarked) [Compound 18] | 13.6 | 9.56 | 0.7
COC1=CC(=O)c2c(O)c(Cl)c(Cl)c(O)c2C1=O [Compound 25] | 2.3 | 1.22 | 0.53
CC1(C)OC2OC3C(COC4=CC(=O)c5cccc(O)c5C4=O)OC(C)(C)OC3C2O1 (centres unmarked) [Compound 10] | 4.16 | 6.37 | 1.53
CCc1c(O)c2c(c(O)c1OC)C(=O)C(OCC(O)C1OC3OC(C)(C)OC3C1O)=CC2=O (centres unmarked) [Compound 19] | 27.9 | 41.7 | 1.49
CC1(C)OC2OC(C(O)COC3=CC(=O)c4c(O)ccc(O)c4C3=O)C(O)C2O1 (centres unmarked) [Compound 15] | 5.46 | 5.65 | 1.03
CC1(C)OC2OC(C(O)COC3=CC(=O)c4ccccc4C3=O)C(O)C2O1 (centres unmarked) [Compound 3] | 24.2 | 31.1 | 1.28
O=C1C=C(OCC2OC(O)C(O)C(O)C2O)C(=O)c2c(O)ccc(O)c21 (centres unmarked) [Compound 16] | > 100 | > 100 | –
CC1(C)OC2OC3C(COC4=CC(=O)c5c(O)c(Cl)c(Cl)c(O)c5C4=O)OC(C)(C)OC3C2O1 (centres unmarked) [Compound 26] | 2.75 | 2.07 | 0.75
CCc1c(O)c2c(c(O)c1Cl)C(=O)C(OC[C@H]1OC(O)[C@H](O)[C@@H](O)[C@@H]1O)=CC2=O (some centres unmarked) [Compound 24] | > 100 | > 100 | –
COC1=CC(=O)c2c(O)ccc(O)c2C1=O [Compound 13] | 5.38 | 9.84 | 1.83
CCc1c(O)c2c(c(O)c1OC)C(=O)C(OC)=CC2=O [Compound 17] | 21.8 | 12.5 | 0.57
COC1=CC(=O)c2c(O)cccc2C1=O [Compound 5] | 4.46 | 5.84 | 1.31
COC1=CC(=O)c2cccc(O)c2C1=O [Compound 9] | 2.85 | 4.05 | 1.42
CC1(C)OC2OC3C(COC4=CC(=O)c5c(O)cccc5C4=O)OC(C)(C)OC3C2O1 (centres unmarked) [Compound 6] | 4.51 | 4.12 | 0.91
O=C1C=C(OC[C@H]2OC(O)[C@H](O)[C@@H](O)[C@@H]2O)C(=O)c2c(O)c(Cl)c(Cl)c(O)c21 (some centres unmarked) [Compound 28] | > 100 | > 100 | –
CCc1c(O)c2c(c(O)c1OC)C(=O)C(OC[C@H]1OC(O)[C@H](O)[C@@H](O)[C@@H]1O)=CC2=O (some centres unmarked) [Compound 20] | 99 | 27.9 | 0.28
CCc1c(O)c2c(c(O)c1Cl)C(=O)C(OC)=CC2=O [Compound 21] | 31.6 | 27.4 | 0.87
CCc1c(O)c2c(c(O)c1Cl)C(=O)C(OCC1OC(C)(C)OC3C1OC1OC(C)(C)OC13)=CC2=O (centres unmarked) [Compound 22] | 4.24 | 2.98 | 0.7
CC1(C)OC2OC3C(COC4=CC(=O)c5c(O)ccc(O)c5C4=O)OC(C)(C)OC3C2O1 (centres unmarked) [Compound 14] | 17.7 | 18.6 | 1.05
